# In PubChem BioAssay AID624129 (Sanford-Burnham Center for Chemical Genomics, 2012):
# Active and inactive are the calls of the source. How the calls were made is not given here.
# Key:
# Experiment in all cases: potency against CXCR6 with APJ panel – cell-based, beta-arrestin, DiscoveRx, uHTS hits, dose response (AID 624129)
# [1] = target: Apelin receptor (Homo sapiens) (UniProt P35414); settings: CXCR6 beta-arrestin (DiscoveRx) antagonist cell assay, APJ
# [2] = target: Beta-galactosidase (Escherichia coli) (UniProt Q8VNN2); settings: CXCR6 beta-arrestin (DiscoveRx) antagonist cell assay, b-galactosidase
# [3] = target: C-C chemokine receptor type 6 (Homo sapiens) (UniProt P51684); settings: CXCR6 beta-arrestin (DiscoveRx) antagonist cell assay
# [4] = target: C-X-C chemokine receptor type 6 (Homo sapiens) (UniProt O00574); settings: CXCR6 beta-arrestin (DiscoveRx) antagonist cell assay; for inhibition: CXCR6, run 1, dose range 2, at 80 µM (top of the series)
# [5] = dose range 1, mean IC50 across replicates
# [6] = CCR6, dose range 1, mean IC50 across replicates
# [7] = CXCR6, dose range 1, mean IC50 across replicates
# Sequence of Beta-galactosidase (Escherichia coli) (Q8VNN2 whole entry, looked up): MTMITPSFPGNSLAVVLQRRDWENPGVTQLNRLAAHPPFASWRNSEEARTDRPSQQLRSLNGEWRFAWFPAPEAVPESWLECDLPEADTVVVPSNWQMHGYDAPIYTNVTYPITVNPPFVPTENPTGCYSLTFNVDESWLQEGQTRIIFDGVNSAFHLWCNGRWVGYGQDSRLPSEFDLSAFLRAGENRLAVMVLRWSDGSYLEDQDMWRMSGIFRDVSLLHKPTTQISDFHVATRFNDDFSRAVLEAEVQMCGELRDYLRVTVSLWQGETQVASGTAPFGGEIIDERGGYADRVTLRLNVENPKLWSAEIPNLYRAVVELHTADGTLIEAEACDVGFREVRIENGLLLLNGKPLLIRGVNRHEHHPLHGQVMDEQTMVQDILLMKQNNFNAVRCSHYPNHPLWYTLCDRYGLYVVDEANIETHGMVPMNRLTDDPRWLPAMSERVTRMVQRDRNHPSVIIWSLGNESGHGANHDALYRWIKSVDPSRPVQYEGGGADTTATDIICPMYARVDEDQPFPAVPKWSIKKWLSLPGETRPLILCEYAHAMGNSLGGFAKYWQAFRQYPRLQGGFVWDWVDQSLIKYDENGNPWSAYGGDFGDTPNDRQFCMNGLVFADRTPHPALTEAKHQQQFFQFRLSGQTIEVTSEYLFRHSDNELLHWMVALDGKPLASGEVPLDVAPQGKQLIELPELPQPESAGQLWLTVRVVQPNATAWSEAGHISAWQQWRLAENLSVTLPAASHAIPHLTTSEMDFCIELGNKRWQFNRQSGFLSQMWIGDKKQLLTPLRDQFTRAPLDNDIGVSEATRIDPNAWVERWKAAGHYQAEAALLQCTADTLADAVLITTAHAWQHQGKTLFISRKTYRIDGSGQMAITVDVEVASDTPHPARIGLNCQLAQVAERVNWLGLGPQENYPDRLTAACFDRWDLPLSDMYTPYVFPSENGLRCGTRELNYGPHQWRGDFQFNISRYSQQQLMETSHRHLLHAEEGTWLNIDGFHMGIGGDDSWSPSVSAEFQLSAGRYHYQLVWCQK
# Sequence of C-X-C chemokine receptor type 6 (Homo sapiens) (O00574 whole entry, looked up): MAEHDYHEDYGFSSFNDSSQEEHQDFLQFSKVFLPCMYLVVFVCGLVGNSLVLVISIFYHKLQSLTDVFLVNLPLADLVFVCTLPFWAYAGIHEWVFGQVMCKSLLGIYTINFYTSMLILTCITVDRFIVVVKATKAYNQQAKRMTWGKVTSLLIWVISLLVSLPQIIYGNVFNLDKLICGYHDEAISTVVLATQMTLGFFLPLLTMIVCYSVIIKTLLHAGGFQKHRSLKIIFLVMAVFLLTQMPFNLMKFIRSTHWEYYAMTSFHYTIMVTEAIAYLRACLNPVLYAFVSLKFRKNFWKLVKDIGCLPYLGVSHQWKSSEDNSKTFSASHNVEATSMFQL
Compound,IC50 ([1]; dose range 1) [µM],"IC50 [1, 5] [µM]","IC50 ([1]; run 2, dose range 1) [µM]","IC50 ([1]; run 3, dose range 1) [µM]",IC50 ([2]; dose range 1),"IC50 [2, 5] [µM]","IC50 ([3]; CCR6, dose range 1) [µM]","IC50 [3, 6] [µM]","IC50 ([3]; CCR6, run 2, dose range 1) [µM]","IC50 ([4]; CXCR6, dose range 1)","IC50 [4, 7] [µM]",inhibition [4] [%],"IC50 ([4]; CXCR6, run 2, dose range 1) [µM]","IC50 ([4]; CXCR6, run 1, dose range 2) [µM]","IC50 ([4]; CXCR6, run 2, dose range 2) [µM]"
O=C(OCn1ncc(Cl)c(Cl)c1=O)c1cccc(C(F)(F)F)c1,21.6,31.7,32.5,40.9,> 80 µM (inactive),> 80,14,16.1,18.2,inactive,23.5,128,19,,
Cc1nc2c(-c3ccc(Cl)cc3)c(C)[nH]n2c(=O)c1Cc1ccccc1,,> 80,> 80,> 80,> 80 µM (inactive),> 80,,> 80,> 80,> 80 µM (inactive),> 80,-28.7,> 80,,
COc1cc(/C=C/c2ccc3c(Br)cc(Br)c(O)c3n2)ccc1O,20.3,23.7,18.8,32.2,> 80 µM (inactive),> 80,12.6,12.1,11.6,inactive,12.5,,11.8,8.69,12.5
CN(C)C(=O)CSc1cccc2cccnc12,,> 80,> 80,> 80,> 80 µM (inactive),> 80,,> 80,> 80,> 80 µM (inactive),> 80,-25,> 80,,
CN(C)c1nc(=NCc2ccco2)ss1,31.8,24.9,18.1,> 80,> 80 µM (inactive),> 80,43.4,38.8,34.2,inactive,55.9,82.8,33.6,,
COc1ccc([N+](=O)[O-])c(S(=O)(=O)c2ccc(Cl)cc2)n1,47.2,49.4,51.5,> 80,> 80 µM (inactive),> 80,69.3,62.5,55.8,inactive,51.9,75.8,61.5,,
COc1ccccc1-c1cc(C(F)(F)F)nc(S(=O)(=O)CCCC(=O)NCc2ccc(F)cc2)n1,,> 80,> 80,> 80,> 80 µM (inactive),> 80,,> 80,> 80,> 80 µM (inactive),> 80,-37.9,> 80,,
CCCCCCCCn1sccc1=O,9.73,8.1,7.99,6.58,> 80 µM (inactive),> 80,6.52,6.83,7.14,6.96 µM,8.16,,8.67,6.75,10.2
O=C1C=CC(=O)N1c1ccccc1N1C(=O)C=CC1=O,,> 80,> 80,> 80,> 80 µM (inactive),> 80,,> 80,> 80,> 80 µM (inactive),> 80,42.9,> 80,,
O=S(=O)(/C=C/C=C/S(=O)(=O)c1ccccc1)c1ccccc1,23.5,24.6,25.7,> 80,> 80 µM (inactive),> 80,7.48,7.41,7.33,11.6 µM,10.5,,8.76,10.1,11.4

# Further molecules by falling IC50 [1, 5], results first:
IC50 ([1]; dose range 1) [µM],"IC50 [1, 5] [µM]","IC50 ([1]; run 2, dose range 1) [µM]","IC50 ([1]; run 3, dose range 1) [µM]",IC50 ([2]; dose range 1),"IC50 [2, 5] [µM]","IC50 ([3]; CCR6, dose range 1) [µM]","IC50 [3, 6] [µM]","IC50 ([3]; CCR6, run 2, dose range 1) [µM]","IC50 ([4]; CXCR6, dose range 1)","IC50 [4, 7] [µM]",inhibition [4] [%],"IC50 ([4]; CXCR6, run 2, dose range 1) [µM]","IC50 ([4]; CXCR6, run 1, dose range 2) [µM]","IC50 ([4]; CXCR6, run 2, dose range 2) [µM]",Compound
22.8,14.7,12.2,9.18,> 80 µM (inactive),> 80,,9.06,9.06,7.44 µM,6.98,28.7,6.53,,,Cc1ccc(-c2oc3ccccc3c(=O)c2O)cc1
5.2,9.29,10.7,12,> 80 µM (inactive),> 80,16.9,24.1,31.4,inactive,15.7,80.7,18.6,,,COC(CNC(=O)c1cc(C(=O)c2c(-c3c(Cl)cccc3Cl)noc2C)c[nH]1)OC
10.3,8.8,7.74,8.35,25.6 µM,25.6,6,5.65,5.3,6.85 µM,7.46,,6.34,8.56,8.1,CN(CCO)c1cc(Sc2nc3ccccc3s2)c2nonc2c1[N+](=O)[O-]
9.71,8.18,7.17,7.67,29.8 µM,29.8,5.52,5.34,5.16,6.36 µM,6.45,,6.05,7.34,6.06,CC(=O)OCCNc1cc(Sc2nc3ccccc3[nH]2)c2nonc2c1[N+](=O)[O-]
5.02,5.55,5.84,5.8,> 80 µM (inactive),> 80,4.87,4.8,4.74,6.29 µM,6.61,,6.54,6.87,6.76,CCS(=O)(=O)c1ncc(Cl)c(C(=O)Nc2ccc(S(=O)(=O)N(C)c3ccccc3)cc2)n1
4.46,4.05,3.91,3.78,> 80 µM (inactive),> 80,2.76,2.87,2.98,3.11 µM,3.27,,2.99,3.64,3.35,CCN(CC)CC(C)(C)C(=O)/C=C/c1ccc(/C=C/C(=O)C(C)(C)CN(CC)CC)cc1
2.86,3.95,4.91,4.08,> 80 µM (inactive),> 80,3.94,4.64,5.33,3.79 µM,3.51,,4.39,2.78,3.09,Cc1cccc(CSc2cccc3cccnc23)c1
1.12,1.41,1.66,1.45,> 80 µM (inactive),> 80,1.26,1.53,1.8,1.32 µM,1.18,,1.79,0.9,0.719,C/C(=N/NC(=O)c1ccc(C(C)(C)C)cc1)c1ccccn1
